For test [1], the system named is Desulfovibrio longus ATCC 51456. Put plainly: MBC of DBMAL, THPS and blends against anaerobic bacteria, 24 hour contact time. The class given is cell-based. As to conditions: alone or in the blend, 40° C., 10^7 to 10^8 CFU/mL. The protocol:
(§1) The synergism of the biocides combination of the present invention was determined using the method described by Kull, F. C, et al. in Applied Microbiology 9:538-541 (1961).
Inside an anaerobic chamber (Bactron anaerobic chamber), a deoxygenated sterile salt solution (3.1183 g of NaCl, 1.3082 mg of NaHCO3, 47.70 mg of KCl, 72.00 mg of CaCl2, 54.49 mg of MgSO4, 172.28 mg of Na2SO4, 43.92 mg of Na2CO3 in 1 L water, pH was adjusted to 7) was inoculated with Desulfovibrio longus ATCC 51456 to a final bacterial concentration of 10^7 to 10^8 CFU/mL. Aliquots of this cell suspension were then treated with DBMAL, THPS, and DBMAL/THPS blends, at selected active concentrations. After the treated cell suspensions were incubated at 40° C. for 24 hours, viable bacteria in each treated and untreated (control) cell suspensions were enumerated using a serial dilution method in Modified Baar's Medium (2.0 g of MgSO4, 5.7 g of Sodium citrate.2H2O, 1.0 g of CaSO4, 1.0 g of NH4Cl, 3.5 g of Sodium lactate, 1.0 g of Yeast extract, 0.5 g of K2HPO4, 0.1 g of Sodium Thioglycolate, 0.02 g of Fe(NH4)2(SO4)2, 20 g of NaCl in 1 L deionized water). The biocidal efficacy was determined by minimum tested biocide concentration for bacteria kill in the aliquots (MBC).
Table 1 summarizes the synergistic effect of each biocide and their blends, and the Synergy Index of each combination.

Test [2] deals with Pseudomonas aeruginosa ATCC 10145 and Staphylococcus aureus ATCC 6538. Nature of the test: MBC of DBMAL, THPS and blends against aerobic bacteria, 1 hr and 2 hr contact time. The class given is cell-based. As to conditions: alone or in the blend; for MBC (ppm active) DBMAL: DBMAL concentration; for MBC (ppm active) THPS: THPS concentration. The procedure:
as §1
Sterile salt solution (0.2203 g of CaCl2, 0.1847 g of MgSO4, and 0.2033 g of NaHCO3 in 1 L water, adjust pH to 7.4) was inoculated with approximately 10^7 CFU/mL of Pseudomonas aeruginosa ATCC 10145 and Staphylococcus aureus ATCC 6538.
Aliquots of the cell suspension were then treated with DBMAL, THPS, and combinations of these actives at selected concentrations.
After incubating at 37° C. for 1 hr, viable bacteria in each treated and untreated (control) cell suspensions were enumerated using a serial dilution method in Tryptic Soy Broth. The biocidal efficacy was determined by minimum biocide concentration for bacteria kill in the aliquots (MBC). Synergy Index was then calculated. Table 2 summarizes the MBC of each biocide and their blends, and the Synergy Index of each combination.
The same test procedure in Example 2 was used to evaluate the biocidal efficacy of DBMAL, THPS and their blends against aerobic bacteria in a 2-hr contact assay. Table 3 summarizes the MBC of each biocide and their blends, and the Synergy Index of each combination.

With `NC(=O)C(Br)(Br)C(N)=O` [1:0, 2,2-dibromomalonamide], the “MBC (ppm active) DBMAL” value in test [1] (DBMAL concentration) is 200.0 ppm active; in test [2] (2-hr contact assay), 77.8 ppm active; in test [2] (37° C., 1 hr contact time) it was above 100.0 ppm active.
Turning to “tetrakis(hydroxymethyl)phosphonium sulfate [0:1]”, the “MBC (ppm active) THPS” value in test [1] (THPS concentration) came out at 50.0 ppm active; in test [2] (2-hr contact assay), 29.6 ppm active; in test [2] (37° C., 1 hr contact time) it was 100.0 ppm active.
